Experimental data reported in article PMC10382584, “Macrocyclization of linear molecules by deep learning to facilitate macrocyclic drug candidates discovery” (Nature Communications, 2023).

What was measured:
Experiment in all cases: biochemical
Parameters in all cases: DiscoveRx KINOMEscan competition binding, percent of DMSO control signal at 100 nM
Details in all cases: read-out: Fig. 4a / Percent Control / Compound 1; percent of DMSO control, competition binding
AMPK-alpha1 = molecular target: T1, AMPK-alpha1 (Homo sapiens, UniProt Q13131)
T1 construct: gene PRKAA1

BMPR1B = BMPR1B (Homo sapiens, UniProt O00238)
CAMKK1 = CAMKK1 (Homo sapiens, UniProt Q8N5S9)
CLK1 = CLK1 (Homo sapiens, UniProt P49759)
CLK1, sequence (P49759 whole entry): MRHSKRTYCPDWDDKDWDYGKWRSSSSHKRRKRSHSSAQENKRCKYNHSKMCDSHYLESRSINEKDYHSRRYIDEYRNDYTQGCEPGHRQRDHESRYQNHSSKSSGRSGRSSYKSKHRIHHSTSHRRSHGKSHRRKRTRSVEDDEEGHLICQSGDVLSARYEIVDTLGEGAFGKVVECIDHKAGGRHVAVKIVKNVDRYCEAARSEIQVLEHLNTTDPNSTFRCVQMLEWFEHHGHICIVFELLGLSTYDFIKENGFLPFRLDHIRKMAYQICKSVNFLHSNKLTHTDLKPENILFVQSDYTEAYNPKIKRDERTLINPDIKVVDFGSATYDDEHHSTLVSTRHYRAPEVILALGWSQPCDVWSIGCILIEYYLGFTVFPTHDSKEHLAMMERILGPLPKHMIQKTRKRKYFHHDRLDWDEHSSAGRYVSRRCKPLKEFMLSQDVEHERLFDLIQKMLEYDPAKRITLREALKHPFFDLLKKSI

CLK3 = CLK3 (Homo sapiens, UniProt P49761)
CLK3, sequence (P49761 whole entry): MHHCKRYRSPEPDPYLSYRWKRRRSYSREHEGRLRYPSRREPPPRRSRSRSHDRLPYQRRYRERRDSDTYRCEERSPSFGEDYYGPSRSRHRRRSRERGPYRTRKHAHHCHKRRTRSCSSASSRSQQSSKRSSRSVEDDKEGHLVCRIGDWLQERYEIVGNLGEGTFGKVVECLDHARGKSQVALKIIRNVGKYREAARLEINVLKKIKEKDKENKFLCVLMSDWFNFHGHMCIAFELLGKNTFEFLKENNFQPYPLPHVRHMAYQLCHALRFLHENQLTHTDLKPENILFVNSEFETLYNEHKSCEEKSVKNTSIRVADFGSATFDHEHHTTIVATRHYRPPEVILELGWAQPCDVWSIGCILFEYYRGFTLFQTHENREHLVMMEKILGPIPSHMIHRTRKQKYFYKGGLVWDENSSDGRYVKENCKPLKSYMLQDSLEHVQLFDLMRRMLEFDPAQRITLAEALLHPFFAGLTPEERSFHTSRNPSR

DYRK2 = DYRK2 (Homo sapiens, UniProt Q92630)
ERK2 = molecular target: T2, ERK2 (Homo sapiens, UniProt P28482)
T2 construct: gene MAPK1

ERK4 = molecular target: T3, ERK4 (Homo sapiens, UniProt P31152)
T3 construct: gene MAPK4

FAK = molecular target: T4, FAK (Homo sapiens, UniProt Q05397)
T4 construct: gene PTK2

FGR = FGR (Homo sapiens, UniProt P09769)
FGR, sequence (P09769 whole entry): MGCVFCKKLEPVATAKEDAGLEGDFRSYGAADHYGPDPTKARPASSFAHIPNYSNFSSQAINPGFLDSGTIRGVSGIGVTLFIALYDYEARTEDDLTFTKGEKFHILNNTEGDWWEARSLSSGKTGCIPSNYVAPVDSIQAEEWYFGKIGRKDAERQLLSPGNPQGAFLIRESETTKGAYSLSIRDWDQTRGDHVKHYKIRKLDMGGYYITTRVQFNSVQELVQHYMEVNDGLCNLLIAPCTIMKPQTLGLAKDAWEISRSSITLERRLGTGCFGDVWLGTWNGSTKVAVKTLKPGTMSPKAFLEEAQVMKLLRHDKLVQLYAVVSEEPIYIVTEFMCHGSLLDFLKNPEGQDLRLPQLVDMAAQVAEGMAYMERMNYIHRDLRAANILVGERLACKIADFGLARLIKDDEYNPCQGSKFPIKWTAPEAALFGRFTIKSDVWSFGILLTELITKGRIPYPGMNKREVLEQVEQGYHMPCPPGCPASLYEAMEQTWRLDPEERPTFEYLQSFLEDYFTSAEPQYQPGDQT

FLT3(K663Q) = FLT3(K663Q) (Homo sapiens, UniProt P36888, K663Q)
FLT3(N841I) = FLT3(N841I) (Homo sapiens, UniProt P36888, N841I)
IGF1R = IGF1R (Homo sapiens, UniProt P08069)
IGF1R, sequence (P08069 whole entry): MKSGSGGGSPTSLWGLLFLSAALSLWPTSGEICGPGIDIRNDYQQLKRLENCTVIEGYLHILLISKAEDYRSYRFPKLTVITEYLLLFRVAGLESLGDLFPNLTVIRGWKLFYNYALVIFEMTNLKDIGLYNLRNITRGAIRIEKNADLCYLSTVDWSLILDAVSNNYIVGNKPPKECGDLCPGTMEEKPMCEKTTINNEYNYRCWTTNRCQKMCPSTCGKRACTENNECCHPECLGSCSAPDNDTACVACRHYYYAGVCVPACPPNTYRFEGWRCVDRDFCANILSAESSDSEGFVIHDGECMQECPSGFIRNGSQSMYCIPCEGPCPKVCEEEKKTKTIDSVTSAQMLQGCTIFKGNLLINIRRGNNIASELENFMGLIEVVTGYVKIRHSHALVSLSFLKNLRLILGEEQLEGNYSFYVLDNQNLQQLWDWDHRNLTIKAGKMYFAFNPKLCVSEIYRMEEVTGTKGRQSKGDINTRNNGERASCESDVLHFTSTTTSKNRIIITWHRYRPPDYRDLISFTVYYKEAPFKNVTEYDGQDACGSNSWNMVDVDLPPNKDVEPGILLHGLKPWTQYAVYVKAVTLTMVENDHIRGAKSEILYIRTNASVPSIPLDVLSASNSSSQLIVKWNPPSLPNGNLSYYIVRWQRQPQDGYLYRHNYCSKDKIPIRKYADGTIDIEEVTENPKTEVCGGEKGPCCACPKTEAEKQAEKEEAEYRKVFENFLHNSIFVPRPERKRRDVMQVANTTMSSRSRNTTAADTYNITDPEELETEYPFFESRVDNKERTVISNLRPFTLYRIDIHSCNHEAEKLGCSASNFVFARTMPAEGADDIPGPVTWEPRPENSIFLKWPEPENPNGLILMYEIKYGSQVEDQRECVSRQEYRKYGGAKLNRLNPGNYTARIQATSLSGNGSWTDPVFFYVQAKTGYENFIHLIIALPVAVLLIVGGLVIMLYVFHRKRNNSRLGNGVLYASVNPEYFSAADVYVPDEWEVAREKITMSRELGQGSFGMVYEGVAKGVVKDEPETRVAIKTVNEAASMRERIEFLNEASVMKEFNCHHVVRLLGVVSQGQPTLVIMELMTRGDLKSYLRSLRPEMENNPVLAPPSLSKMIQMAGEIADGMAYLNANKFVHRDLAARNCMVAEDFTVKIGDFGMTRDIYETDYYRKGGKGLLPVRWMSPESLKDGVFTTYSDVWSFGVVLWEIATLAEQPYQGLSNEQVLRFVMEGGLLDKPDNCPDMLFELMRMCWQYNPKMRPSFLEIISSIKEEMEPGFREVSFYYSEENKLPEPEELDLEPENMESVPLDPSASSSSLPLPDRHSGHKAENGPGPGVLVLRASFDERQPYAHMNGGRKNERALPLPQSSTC

LIMK2 = LIMK2 (Homo sapiens, UniProt P53671)
LIMK2, sequence (P53671 whole entry): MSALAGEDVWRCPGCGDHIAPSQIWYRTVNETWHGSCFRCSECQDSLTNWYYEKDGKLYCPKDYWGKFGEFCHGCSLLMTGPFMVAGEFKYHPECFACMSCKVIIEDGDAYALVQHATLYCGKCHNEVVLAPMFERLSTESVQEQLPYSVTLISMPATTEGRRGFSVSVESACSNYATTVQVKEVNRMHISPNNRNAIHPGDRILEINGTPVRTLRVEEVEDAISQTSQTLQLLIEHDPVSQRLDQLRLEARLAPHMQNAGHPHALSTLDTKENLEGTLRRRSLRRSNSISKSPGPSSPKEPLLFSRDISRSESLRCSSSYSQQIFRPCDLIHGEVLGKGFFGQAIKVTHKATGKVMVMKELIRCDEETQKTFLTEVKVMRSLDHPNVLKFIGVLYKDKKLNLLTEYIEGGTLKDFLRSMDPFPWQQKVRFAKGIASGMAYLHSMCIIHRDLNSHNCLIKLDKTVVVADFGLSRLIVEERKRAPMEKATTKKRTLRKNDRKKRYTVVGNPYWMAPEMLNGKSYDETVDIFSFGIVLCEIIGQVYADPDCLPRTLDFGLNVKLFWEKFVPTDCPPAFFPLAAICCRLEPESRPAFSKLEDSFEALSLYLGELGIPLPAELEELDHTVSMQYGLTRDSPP

MAST1 = MAST1 (Homo sapiens, UniProt Q9Y2H9)
MINK = molecular target: T5, MINK (Homo sapiens, UniProt Q8N4C8)
T5 construct: gene MINK1

NEK2 = NEK2 (Homo sapiens, UniProt P51955)
NEK2, sequence (P51955 whole entry): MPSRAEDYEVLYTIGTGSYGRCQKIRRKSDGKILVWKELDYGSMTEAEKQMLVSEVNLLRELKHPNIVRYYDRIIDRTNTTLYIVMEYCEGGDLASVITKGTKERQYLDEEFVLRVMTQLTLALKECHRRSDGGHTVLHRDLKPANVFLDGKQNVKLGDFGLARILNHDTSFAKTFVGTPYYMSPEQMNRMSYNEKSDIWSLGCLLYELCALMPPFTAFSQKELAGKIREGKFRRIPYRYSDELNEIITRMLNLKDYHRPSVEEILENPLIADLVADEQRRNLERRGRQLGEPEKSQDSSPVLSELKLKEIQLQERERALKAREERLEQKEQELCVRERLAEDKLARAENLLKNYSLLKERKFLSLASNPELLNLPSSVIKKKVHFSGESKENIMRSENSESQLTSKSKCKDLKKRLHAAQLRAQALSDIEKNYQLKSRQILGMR

NEK5 = NEK5 (Homo sapiens, UniProt Q6P3R8)
NEK5, sequence (Q6P3R8 whole entry): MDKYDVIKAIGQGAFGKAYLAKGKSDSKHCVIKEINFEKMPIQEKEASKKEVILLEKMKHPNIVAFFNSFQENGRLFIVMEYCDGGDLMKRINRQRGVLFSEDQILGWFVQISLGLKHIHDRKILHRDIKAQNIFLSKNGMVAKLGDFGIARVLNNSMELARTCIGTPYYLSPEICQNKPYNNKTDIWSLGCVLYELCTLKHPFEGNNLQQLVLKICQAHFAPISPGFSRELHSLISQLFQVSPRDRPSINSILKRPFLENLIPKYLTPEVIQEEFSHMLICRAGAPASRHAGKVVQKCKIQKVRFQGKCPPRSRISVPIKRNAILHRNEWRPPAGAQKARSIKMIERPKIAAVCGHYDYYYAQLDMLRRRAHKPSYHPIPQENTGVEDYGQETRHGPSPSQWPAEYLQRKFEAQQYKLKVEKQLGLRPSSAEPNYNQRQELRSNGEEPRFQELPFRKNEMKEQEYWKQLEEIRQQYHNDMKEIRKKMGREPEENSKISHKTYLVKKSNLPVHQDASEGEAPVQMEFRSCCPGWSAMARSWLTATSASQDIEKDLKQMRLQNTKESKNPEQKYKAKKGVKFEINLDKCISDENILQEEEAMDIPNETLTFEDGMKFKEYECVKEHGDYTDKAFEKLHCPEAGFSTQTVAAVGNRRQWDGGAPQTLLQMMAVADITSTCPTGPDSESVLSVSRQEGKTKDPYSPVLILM

NEK6 = NEK6 (Homo sapiens, UniProt Q9HC98)
PAK2 = PAK2 (Homo sapiens, UniProt Q13177)
RIOK1 = RIOK1 (Homo sapiens, UniProt Q9BRS2)
[1] = molecular target: T6, RSK2(Kin.Dom.1-N-terminal) (Homo sapiens, UniProt P51812)
T6 construct: gene RPS6KA3; Kin.Dom.1-N-terminal

TSSK1B = TSSK1B (Homo sapiens, UniProt Q9BXA7)
TSSK1B, sequence (Q9BXA7 whole entry): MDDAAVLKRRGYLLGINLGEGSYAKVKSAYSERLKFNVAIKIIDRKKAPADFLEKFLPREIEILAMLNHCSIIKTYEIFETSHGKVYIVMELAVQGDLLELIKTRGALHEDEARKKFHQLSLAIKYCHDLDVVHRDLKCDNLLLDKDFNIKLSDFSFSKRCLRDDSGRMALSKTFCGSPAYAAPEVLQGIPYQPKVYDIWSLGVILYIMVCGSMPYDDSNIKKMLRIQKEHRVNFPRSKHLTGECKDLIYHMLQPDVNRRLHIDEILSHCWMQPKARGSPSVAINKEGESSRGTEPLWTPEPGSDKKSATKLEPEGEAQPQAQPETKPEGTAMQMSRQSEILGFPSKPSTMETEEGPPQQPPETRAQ

VPS34 = molecular target: T7, VPS34 (Homo sapiens, UniProt Q8NEB9)
T7 construct: gene PIK3C3

WNK4 = WNK4 (Homo sapiens, UniProt Q96J92)
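Note: KINOMEscan kinase panel binding assay, signal normalized between DMSO as 100% and a positive control compound as 0%.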

In the case of `Cc1cnc2nc1Nc1cccc(c1)COCc1cc(ccc1OCCN1CCCC1)N2` [Compound 1], the remaining binding at 0.1 µM (AMPK-alpha1) is reported as 100%, the remaining binding at 0.1 µM (BMPR1B) is reported as 63% and the remaining binding at 0.1 µM (CAMKK1) is reported as 100%. It also gave a remaining binding at 0.1 µM (CLK1) of 95%, a remaining binding at 0.1 µM (CLK3) of 100% and a remaining binding at 0.1 µM (DYRK2) of 90%. It also gave a remaining binding at 0.1 µM (ERK2) of 100%, a remaining binding at 0.1 µM (ERK4) of 81% and a remaining binding at 0.1 µM (FAK) of 95%. The remaining binding at 0.1 µM (FGR) was 100%, the remaining binding at 0.1 µM (FLT3(K663Q)) was 36% and the remaining binding at 0.1 µM (FLT3(N841I)) was 3.5%. The remaining binding at 0.1 µM (IGF1R) was 91%, the remaining binding at 0.1 µM (LIMK2) was 92% and the remaining binding at 0.1 µM (MAST1) was 94%. It also gave a remaining binding at 0.1 µM (MINK) of 82%, a remaining binding at 0.1 µM (NEK2) of 83% and a remaining binding at 0.1 µM (NEK5) of 93%. It also gave a remaining binding at 0.1 µM (NEK6) of 100%, a remaining binding at 0.1 µM (PAK2) of 100% and a remaining binding at 0.1 µM (RIOK1) of 75%. The remaining binding at 0.1 µM [1] was 56%, the remaining binding at 0.1 µM (TSSK1B) was 92% and the remaining binding at 0.1 µM (VPS34) was 27%. For the same compound, the remaining binding at 0.1 µM (WNK4) was 48%.
